Legend:
total MnSOD = experiment: Western blot of total MnSOD protein levels in C12-treated MNs; type: cell-based, human; conditions: BJ-SOD1^L144F MNs, increasing doses of C12, day 31
Description: (§1) Protein lysates were resolved in 12% SDS-PAGE gels or 4-20% precast gels in Tris-Glycine-SDS buffer. Proteins were then transferred to a nitrocellulose membrane and blocked with 5% milk in TBST buffer. Primary antibodies were diluted in 5% milk and incubated with the membranes overnight at 4° C. Membranes were washed thrice in TBST buffer. The corresponding horseradish peroxidase secondary antibodies (Life Technologies) were then diluted 1:5000 in 5% milk and incubated at room temperature for 90 minutes. Blots were washed thrice before exposing to ECL for imaging.

[1] = tested on: mitochondrial acetyl-lysine proteins; experiment: Western blot of acetyl-lysine proteins in purified mitochondrial extracts of ALS MNs; type: cell-based, human; conditions: panel of ALS MNs, 5 μM C12, day 31
Description: as §1
(§2) Mitochondria from motor neuron cultures were isolated using the MACS technology. Motor neurons culture were first Accutase and wash twice with PBS before resuspending in ice cold Lysis buffer. The cells were then homogenized with a dounce homogenizer (Pestle B) 15 strokes. The homogenate was diluted with 1× separation buffer based on manufacturer's instructions. Anti-TOM22 were added to magnetically label the mitochondria before incubating at 4° C. for 1 hour. The cells were then washed twice and filtered prior to loading into the separation column (LS column) that was attached to a magnetic stand (all from Miltenyi Biotec). After three rounds of washing, the column was removed from the magnetic stand and labelled mitochondria were eluted in storage buffer for downstream applications.

ALS MNs [2] = experiment: Metabolic flux analysis, MitoStress assay (OCR) in ALS MNs; type: cell-based, human; conditions: for ATP production / basal respiration / spare respiratory capacity: NAM 0.5 mM, siRNA 3 days; for ATP production: C12 5 μM; for mitochondrial respiration / metabolic profile: day 31, C12 5 μM, Riluzole 5 μM, Edaravone 100 μM
Description: (§3) After dissociating with Accutase, cells were blocked with solution containing phosphate-buffered saline, 0.5% bovine serum albumin (BSA) and 2 mM EDTA. The cells were then incubated with CD171-APC antibody (Miltenyi Biotec) and PSA-NCAM-APC antibody (Miltenyi Biotec) for 10 mins at 4° C. After washing, the cells were then incubated with anti-APC microbeads for 15 minutes at 4° C. The cells were then washed twice and filtered prior to loading into the separation column (LS column) that was attached to a magnetic stand (all from Miltenyi Biotec). After three rounds of washing, the column was removed from the magnetic stand and labelled cells were eluted in culture media for replating.
(§4) Motor neuron cultures at day 27 were dissociated with Accutase and seeded at 2 million cells per well in a 6-well plate. At day 28, non-targeting siRNA or siRNAs were individually complexed with Lipofectamine RNAiMAX following manufacturer's instructions and added to the motor neuron cultures. For each well, 10 pmol of siRNAs and 8 μl of Lipofectamine RNAiMAX were used. Cells were either harvested for RNA and protein analyses, fixed for immunostaining or metabolic flux analysis were performed 3 days after siRNA transfection.

ALS MNs [3] = experiment: Metabolic flux analysis, Glycolysis stress assay (ECAR) in ALS MNs; type: cell-based, human; conditions: for glycolysis: C12 5 μM, siRNA 3 days
Description: as §4

ALS MNs [4] = experiment: Neuronal morphology (soma size, primary neurites) in ALS MNs; type: cell-based, human; conditions: for number of primary neurites / soma size: day 31; for neuronal morphologies: day 31, NAM 0.5 mM, C12 5 μM, Riluzole 5 μM, Edaravone 100 μM, siRNA
Description: Cells were fixed in 4% paraformaldehyde for 15 minutes, permeabilized in 0.1% Triton X-100 for 15 minutes and blocked in buffer containing 5% FBS and 1% BSA for an hour at room temperature. Primary antibodies (Table S4) were diluted in blocking buffer and incubated overnight at 4° C. Cells were washed thrice in PBS. The respective secondary antibodies were diluted 1:1500 in blocking buffer and incubated at room temperature, in the dark, for 90 minutes. DAPI was used at 0.1 μg/ml to visualize cellular nuclei.
Images were acquired using the high content microscope Phenix (Perkin Elmer) using the 20× air objective. Image analyses including cell counts and intensity measurements were performed using Columbus (Perkin Elmer).
For primary neurites analysis, neuronal projections from the soma size was determined based on SMI-32 staining. For soma size analysis, cellular nuclei were identified by DAPI, and the cytoplasmic area surrounding the nucleus was determined based on SMI-32 staining. Soma size area was measured by image analysis software (ImageJ, NIH) based on the cytoplasmic area surrounding the nucleus, excluding neuronal projections.

CHOP = experiment: qPCR of ER stress transcript CHOP in ALS MN cultures; type: cell-based, human; conditions: ALS MNs, day 31; C12 5 μM, Riluzole 5 μM, Edaravone 100 μM
Description: (§5) Cells were harvested in Trizol reagent for RNA extraction following manufacturer's instructions. Purified RNA was converted to cDNA using the High-Capacity cDNA Reverse Transcription kit, and quantitative PCR (qPCR) was performed on the QuantStudio 5 Real-Time PCR System using PowerUp™ SYBR™ Green Master Mix (all from Applied Biosystems). Gene expressions were normalized to HPRT and ACTB expression unless otherwise stated.

ALS MNs [5] = experiment: Motor neuron survival assay (ISL1+ MNs) in ALS iPSC-derived MNs; type: cell-based, human; conditions: for MN survival (ISL1+ MNs): ALS MNs, treatment from day 28, NAM 0.5 mM, C12 5 μM, Riluzole 5 μM, Edaravone 100 μM, siRNA 10 pmol
Description: Cultures were then fixed with 4% PFA on Day 25, 28, 31 and 35 respectively for quantification of motor neuron survival. Fixed cultures were stained with the motor neuron marker ISL1, and cellular nuclei were counterstained with DAPI before imaging on the high content microscope Phenix (Perkin Elmer). Percentage of ISL1+ cells was normalized to total nuclei number. To calculate normalized survival index, the percentage of ISL1+/DAPI at day 25 was arbitrary set as 1.0, and motor neuron survival on later days were in turn normalized to day 25 cultures.
as §4

spliced XBP1 (sXBP1) = experiment: qPCR of ER stress transcript spliced XBP1 in ALS MN cultures; type: cell-based, human; conditions: ALS MNs, day 31; C12 5 μM, Riluzole 5 μM, Edaravone 100 μM
Description: as §5

SMA type I (1-38G) MNs = experiment: MitoStress assay in SMA type I MNs; type: cell-based, human; conditions: 5 μM C12
SIRT1 = target: T1, SIRT1 (Homo sapiens, UniProt Q96EB6); experiment: Cellular thermal shift assay (CETSA), SIRT1; conditions: 20 μM C12, 1 hour, intact HEK293T cells, 48-68° C.
T1 sequence (Q96EB6 1-747): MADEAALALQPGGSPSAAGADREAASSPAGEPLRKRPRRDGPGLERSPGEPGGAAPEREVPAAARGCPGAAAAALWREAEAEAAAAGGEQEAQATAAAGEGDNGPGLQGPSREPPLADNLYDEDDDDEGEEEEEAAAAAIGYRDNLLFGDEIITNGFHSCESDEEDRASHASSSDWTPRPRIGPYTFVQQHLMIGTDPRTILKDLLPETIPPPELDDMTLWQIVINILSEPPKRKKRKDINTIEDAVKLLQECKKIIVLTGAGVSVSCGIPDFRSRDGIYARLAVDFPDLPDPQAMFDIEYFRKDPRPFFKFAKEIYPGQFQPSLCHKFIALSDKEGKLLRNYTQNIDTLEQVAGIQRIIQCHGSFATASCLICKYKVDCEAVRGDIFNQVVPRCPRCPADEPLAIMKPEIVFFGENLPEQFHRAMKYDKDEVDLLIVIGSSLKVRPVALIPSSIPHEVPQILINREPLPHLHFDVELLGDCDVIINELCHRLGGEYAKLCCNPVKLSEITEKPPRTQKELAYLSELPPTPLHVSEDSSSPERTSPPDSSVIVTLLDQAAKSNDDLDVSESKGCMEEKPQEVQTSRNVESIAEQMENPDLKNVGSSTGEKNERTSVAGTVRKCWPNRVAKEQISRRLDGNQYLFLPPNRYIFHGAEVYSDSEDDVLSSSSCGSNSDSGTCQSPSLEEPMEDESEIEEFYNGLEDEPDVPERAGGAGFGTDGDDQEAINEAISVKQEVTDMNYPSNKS
Description: CETSA was performed as previously described (3) and HEK293T cells were used to carry out the experiment. […] After the incubation, the cells were harvested, washed, pellet down and resuspended in 1 mL of PBS. Equal amounts of cell suspensions were aliquoted into Eppendorf tubes. The cell suspensions were then heated (48-68° C.) and lysed using 2 cycles of freeze-thawing. The soluble fractions were isolated and analyzed by Western blot analysis as described above.

mitochondrial Complex I = experiment: Complex I activity in ALS MNs; type: cell-based, human; conditions: day 31, C12
Description: Cell lysates were prepared using Complex I Enzyme Activity Microplate Assay Kit (Abcam), following the manufacturer's instructions. Activity of Complex I was recorded, normalized and quantified based on manufacturer's instructions. Biological triplicates were performed with a minimum of 3 technical replicates each.

ALS patients = conditions: cited from earlier work
healthy MNs [6] = experiment: Metabolic flux analysis, MitoStress assay (OCR) in healthy MNs; type: cell-based, human
Description: as §3, §4

ALS MNs [7] = experiment: Mitochondrial NAD+ quantification in ALS iPSC-derived MNs; type: cell-based, human; conditions: 0.5 mM NAM
Description: as §2
(§6) Mitochondria from motor neuron cultures (10 million cells) were isolated using the MACS technology (as described above). Mitochondrial NAD+ was prepared quantified using NAD/NADH-Glo™ Assay (Promega) following manufacturer's instructions. Briefly, isolated mitochondria were first diluted in PBS, bicarbonate base buffer and 1% DTAB in a ratio of 2:1:1. […] After heating, 0.5M of Trizma base was added to the suspension and levels of mitochondrial NAD^+ were recorded, normalized to NAD^+ standard curve and quantified based on manufacturer's instructions (Promega). […]

healthy MNs [8] = experiment: Mitochondrial NAD+ quantification in healthy iPSC-derived MNs; type: cell-based, human; conditions: NAM supplementation
Description: as §2, §6

GCN5L1 = GCN5L1 knockdown by siRNA in iPSC-derived MNs (qPCR); type: cell-based, human; conditions: day 31, vs non-targeting siRNA
Description: as §4, §5

Compound | ATP production (ALS MNs [2]; SIRT3 lentivirus day 28-31) | mitochondrial respiration / metabolic profile (ALS MNs [2]) | glycolysis (ALS MNs [3]) | number of primary neurites (ALS MNs [4]) | soma size (ALS MNs [4]) | neuronal morphologies (ALS MNs [4]) | expression of ER stress transcript CHOP (CHOP) | MN survival (ISL1+ MNs) (ALS MNs [5]) | expression of ER stress transcript sXBP1 (spliced XBP1 (sXBP1)) | efficacy in ALS patients (ALS patients) | basal respiration (ALS MNs [2]; SIRT3 lentivirus day 28-31) | spare respiratory capacity (ALS MNs [2]; SIRT3 lentivirus day 28-31) | hyper-glycolytic metabolic profile / phenotype (ALS MNs [3]) | further results
COc1ccc(-c2cc3ccc(O)cc3oc2=O)cc1 [C12, 7-hydroxy-3-(4′-methoxyphenyl) coumarin] | rescued ATP production back to healthy levels | promoted mitochondrial respiration | reduced glycolysis | increased number of primary neurites | enlarged soma sizes | improved neuronal morphologies | significantly reduced | promoted ALS MN survival | significantly reduced | – | – | – | – | total MnSOD protein levels (total MnSOD): remains unchanged; mitochondrial acetyl-lysine signals [1]: significantly reduced; cytotoxicity (ALS MNs [5]; 10 μM C12, ALS MNs (BJ-SOD1^L144F)): cytotoxic; metabolic defect (basal respiration, ATP production) (SMA type I (1-38G) MNs): did not improve the metabolic defect; thermal stability of SIRT1 (SIRT1): but not another abundantly expressed sirtuin, SIRT1; mitochondrial Complex I activity (mitochondrial Complex I): increased mitochondrial Complex I activity
CC1=NN(c2ccccc2)C(=O)C1 [Edaravone] | – | did not show any significant changes | – | no significant change | no significant change | did not improve neuronal morphologies | significantly reduced | promoted ALS MN survival | significantly reduced | efficacy only in a small subset of ALS patients | – | – | – | –
NC(=O)c1cccnc1 [NAM, Nicotinamide] | significantly improved | – | – | – | – | healthier neuronal morphologies | – | promoted ALS MN survival | – | – | significantly improved | significantly improved | corrected the hyper-glycolytic metabolic profile | mitochondrial respiration (OCR parameters) (healthy MNs [6]): no significant effects; mitochondrial NAD+ levels (ALS MNs [7]): significantly elevated; mitochondrial NAD+ levels (healthy MNs [8]): did not elevate
Nc1nc2ccc(OC(F)(F)F)cc2s1 [Riluzole] | – | – | – | – | – | – | significantly reduced | – | significantly reduced | efficacious amongst bulbar-onset ALS patients and not in subjects with limb-onset ALS | – | – | – | lifespan extension (ALS patients; on average): 3 months
GCN5L1 siRNA: siRNA against human GCN5L1, Dharmacon J-012580-09-0010 (AGAGGAGGCGAGAGGCUAU; listed as RNA, further chemistry not given here) | rescued ATP production back to healthy levels | – | reduced | – | – | healthier neuronal morphologies | – | promoted survival | – | – | significant improvements | significant improvements | reduced hyper-glycolytic phenotype | ATP production (ALS MNs [2]; SIRT3 lentivirus day 28-31, listed as siRNAs targeting GCN5L1): significant improvements; basal acidification (ALS MNs [3]): reduced; glycolytic capacity (ALS MNs [3]): reduces glycolytic capacity; GCN5L1 knockdown (GCN5L1): 60%
